Consider 36 compounds from patent US8338565B2, “Macrocyclic compounds for inhibition of tumor necrosis factor alpha” (Ensemble Therapeutics Corporation, priority 2008, dated 2012).

Numbered stars: 1 amine (or outer) side, 2 acyl side, 3 side chain; on linkers, the order of the positions; unused ones are H or OH. Bridge positions count the residues as written; N and C are the ends. Square brackets hold non-standard residues; d marks the D form. Peptide text beside a SMILES is read from it. Bip = N[C@@H](Cc1ccc(-c2ccccc2)cc1)C(=O)O; dBip = N[C@H](Cc1ccc(-c2ccccc2)cc1)C(=O)O; dPhe(4-NH2) = Nc1ccc(C[C@@H](N)C(=O)O)cc1; Phe(4-NH2) = Nc1ccc(C[C@H](N)C(=O)O)cc1; d(hPhe) = N[C@H](CCc1ccccc1)C(=O)O; hPhe = N[C@@H](CCc1ccccc1)C(=O)O; 2Thi = N[C@@H](Cc1cccs1)C(=O)O; d2Thi = N[C@H](Cc1cccs1)C(=O)O; Suc = O=C(CCC(=O)[*:2])[*:1]; Nphe = O=C(O)CNCc1ccccc1

The target of one experiment is T1, TNFα / TNFα receptor (TNFα R1/Fc) (Homo sapiens, UniProt P01375).
T1 construct: purchased R&D Systems
T1 sequence (P01375 77-233 limits assumed, species assumed): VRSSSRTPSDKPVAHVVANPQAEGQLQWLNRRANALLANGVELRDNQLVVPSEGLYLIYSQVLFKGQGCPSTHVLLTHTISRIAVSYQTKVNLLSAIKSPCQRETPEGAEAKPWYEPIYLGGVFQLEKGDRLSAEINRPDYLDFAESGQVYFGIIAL
Nature of the experiment: Inhibition of binding of TNFα to the TNFα receptor (plate ELISA competition). To be noted: Activity (IC50, inhibition of TNFα binding to TNFα R1/Fc), Table 2. The essentials: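 Compound dilutions were preincubated 30 min at RT with 8.33 nM TNFα R1/Fc in PBST with 2% DMSO, then added to wells coated with 15 nM TNFα for 30 min. Bound receptor was detected with HRP anti-human Fc and TMB, read as A450.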
For orientation: An ELISA detects its analyte on a solid surface through an enzyme-linked reagent.
`O=C1COc2ccc(cc2)C[C@@H](C(=O)N[C@H](Cc2ccccc2)C(=O)O)NC(=O)[C@H](CCc2ccccc2)NC(=O)[C@@H](Cc2ccc(-c3ccccc3)cc2)NC(=O)[C@H](Cc2cccs2)N1` [Compound 480]: the IC50 was in the range of 10 to 30 µM.

The compound `O=C1COc2ccc(cc2)C[C@@H](C(=O)N[C@@H](Cc2ccccc2)C(=O)O)NC(=O)[C@H](CCc2ccccc2)NC(=O)[C@@H](Cc2ccc(-c3ccccc3)cc2)NC(=O)[C@H](Cc2cccs2)N1` [Compound 481] registered an IC50 below 10 µM.

With `O=C1COc2ccc(cc2)C[C@@H](C(=O)N[C@@H](CO)C(=O)O)NC(=O)[C@H](CCc2ccccc2)NC(=O)[C@@H](Cc2ccc(-c3ccccc3)cc2)NC(=O)[C@H](Cc2cccs2)N1` [Compound 486], the IC50 was below 10 µM.

The experiment is the same for the next values; noted with them: Table 2; read-out: Activity (IC50, inhibition of TNFα binding to TNFα R1/Fc).
`O=C1CCC(=O)N[C@H](CCc2ccccc2)C(=O)N[C@@H](Cc2ccc(-c3ccccc3)cc2)C(=O)N[C@H](Cc2ccccc2)C(=O)N[C@H](C(=O)N[C@@H](CCc2ccccc2)C(=O)O)Cc2ccc(cc2)N1` [Compound 470] ([d(hPhe)][Bip][dF][Phe(4-NH2)][hPhe]-OH; linker N-4 via Suc): the IC50 is below 10 µM.

Regarding `O=C1CCC(=O)N[C@H](CCc2ccccc2)C(=O)N[C@@H](Cc2ccc(-c3ccccc3)cc2)C(=O)N[C@H](Cc2ccccc2)C(=O)N[C@H](C(=O)N[C@@H](Cc2ccc(O)cc2)C(=O)O)Cc2ccc(cc2)N1` [Compound 471] ([d(hPhe)][Bip][dF][Phe(4-NH2)]Y-OH; linker N-4 via Suc), the IC50 is below 10 µM.

Take `O=C(O)CNC(=O)[C@@H]1Cc2ccc(cc2)OCC(=O)N[C@@H](Cc2cccs2)C(=O)N[C@H](Cc2ccc(-c3ccccc3)cc2)C(=O)N[C@@H](CCc2ccccc2)C(=O)N1` [Compound 472]: the IC50 was below 10 µM.

For `C[C@H](NC(=O)[C@@H]1Cc2ccc(cc2)OCC(=O)N[C@@H](Cc2cccs2)C(=O)N[C@H](Cc2ccc(-c3ccccc3)cc2)C(=O)N[C@@H](CCc2ccccc2)C(=O)N1)C(=O)O` [Compound 473], the IC50 is below 10 µM.

Take `O=C(O)CCNC(=O)[C@@H]1Cc2ccc(cc2)OCC(=O)N[C@@H](Cc2cccs2)C(=O)N[C@H](Cc2ccc(-c3ccccc3)cc2)C(=O)N[C@@H](CCc2ccccc2)C(=O)N1` [Compound 475]: the IC50 was below 10 µM.

Turning to `CC(C)(NC(=O)[C@@H]1Cc2ccc(cc2)OCC(=O)N[C@@H](Cc2cccs2)C(=O)N[C@H](Cc2ccc(-c3ccccc3)cc2)C(=O)N[C@@H](CCc2ccccc2)C(=O)N1)C(=O)O` [Compound 477], the IC50 is below 10 µM.

In the case of `O=C1COc2ccc(cc2)C[C@@H](C(=O)NC2(C(=O)O)CC2)NC(=O)[C@H](CCc2ccccc2)NC(=O)[C@@H](Cc2ccc(-c3ccccc3)cc2)NC(=O)[C@H](Cc2cccs2)N1` [Compound 478], the IC50 was below 10 µM.

As to `O=C(O)CNC(=O)CNC(=O)[C@@H]1Cc2ccc(cc2)OCC(=O)N[C@@H](Cc2cccs2)C(=O)N[C@H](Cc2ccc(-c3ccccc3)cc2)C(=O)N[C@@H](CCc2ccccc2)C(=O)N1` [Compound 479], the IC50 was below 10 µM.

In the case of `O=C1COc2ccc(cc2)C[C@@H](C(=O)NS(=O)(=O)c2ccccc2)NC(=O)[C@H](CCc2ccccc2)NC(=O)[C@@H](Cc2ccc(-c3ccccc3)cc2)NC(=O)[C@H](Cc2cccs2)N1` [Compound 483], the IC50 was above 100 µM.

Take `Cc1ccc(S(=O)(=O)NCCNC(=O)[C@@H]2Cc3ccc(cc3)OCC(=O)N[C@@H](Cc3cccs3)C(=O)N[C@H](Cc3ccc(-c4ccccc4)cc3)C(=O)N[C@@H](CCc3ccccc3)C(=O)N2)cc1` [Compound 484]: the IC50 is above 100 µM.

In the case of `O=C(O)C[C@H](Cc1ccccc1)NC(=O)[C@@H]1Cc2ccc(cc2)OCC(=O)N[C@@H](Cc2cccs2)C(=O)N[C@H](Cc2ccc(-c3ccccc3)cc2)C(=O)N[C@@H](CCc2ccccc2)C(=O)N1` [Compound 485], the IC50 was 10 to 30 µM.

`CC(C)[C@H](NC(=O)[C@@H]1Cc2ccc(cc2)OCC(=O)N[C@@H](Cc2cccs2)C(=O)N[C@H](Cc2ccc(-c3ccccc3)cc2)C(=O)N[C@@H](CCc2ccccc2)C(=O)N1)C(=O)O` [Compound 487]: the IC50 was 10 to 30 µM.

As for `NC(=O)C[C@@H]1NC(=O)COc2ccc(cc2)C[C@@H](C(=O)O)NC(=O)[C@H](Cc2ccccc2)NC(=O)[C@@H](Cc2ccc(-c3ccccc3)cc2)NC1=O` [Compound 488], the IC50 is above 100 µM.

As to `CC(C)(C)Oc1ccc(C[C@@H]2NC(=O)COc3ccc(cc3)C[C@@H](C(=O)O)NC(=O)[C@H](Cc3ccccc3)NC(=O)[C@H](Cc3ccc(-c4ccccc4)cc3)NC2=O)cc1` [Compound 489], the IC50 was above 100 µM.

Turning to `CC(=O)NCCCC[C@@H]1NC(=O)COc2ccc(cc2)C[C@@H](C(=O)O)NC(=O)[C@H](Cc2ccccc2)NC(=O)[C@H](Cc2ccc(-c3ccccc3)cc2)NC1=O` [Compound 490], the IC50 is above 100 µM.

`O=C1COc2ccc(cc2)C[C@@H](C(=O)O)NC(=O)[C@H](Cc2ccccc2)NC(=O)[C@H](Cc2ccc(-c3ccccc3)cc2)NC(=O)[C@H](Cc2ccc(OCc3ccccc3)cc2)N1` [Compound 491]: the IC50 was above 100 µM.

As for `O=C1CCC(=O)N[C@@H](Cc2cccs2)C(=O)N[C@H](Cc2ccc(-c3ccccc3)cc2)C(=O)N[C@H](Cc2ccccc2)C(=O)N[C@H](C(=O)O)Cc2ccc(cc2)N1` [Compound 494] ([2Thi][dBip][dF][Phe(4-NH2)]-OH; linker N-4 via Suc), the IC50 was above 100 µM.

On to `O=C1CCC(=O)N[C@@H](Cc2cccs2)C(=O)N[C@@H](Cc2ccc(-c3ccccc3)cc2)C(=O)N[C@@H](Cc2ccccc2)C(=O)N[C@H](C(=O)O)Cc2ccc(cc2)N1` [Compound 495] ([2Thi][Bip]F[Phe(4-NH2)]-OH; linker N-4 via Suc), for which the IC50 was above 100 µM.

In the case of `O=C1CCC(=O)N[C@H](Cc2cccs2)C(=O)N[C@H](Cc2ccc(-c3ccccc3)cc2)C(=O)N[C@@H](Cc2ccccc2)C(=O)N[C@H](C(=O)O)Cc2ccc(cc2)N1` [Compound 496] ([d2Thi][dBip]F[Phe(4-NH2)]-OH; linker N-4 via Suc), the IC50 was above 100 µM.

For `O=C1CCC(=O)N[C@H](Cc2cccs2)C(=O)N[C@@H](Cc2ccc(-c3ccccc3)cc2)C(=O)N[C@@H](Cc2ccccc2)C(=O)N[C@@H](C(=O)O)Cc2ccc(cc2)N1` [Compound 497] ([d2Thi][Bip]F[dPhe(4-NH2)]-OH; linker N-4 via Suc), the IC50 was above 100 µM.

With `O=C1CCC(=O)N[C@H](Cc2cccs2)C(=O)N[C@H](Cc2ccc(-c3ccccc3)cc2)C(=O)N[C@H](Cc2ccccc2)C(=O)N[C@@H](C(=O)O)Cc2ccc(cc2)N1` [Compound 498] ([d2Thi][dBip][dF][dPhe(4-NH2)]-OH; linker N-4 via Suc), the IC50 was above 100 µM.

On to `O=C1CCC(=O)N[C@@H](Cc2cccs2)C(=O)N[C@@H](Cc2ccc(-c3ccccc3)cc2)C(=O)N[C@H](Cc2ccccc2)C(=O)N[C@@H](C(=O)O)Cc2ccc(cc2)N1` [Compound 499] ([2Thi][Bip][dF][dPhe(4-NH2)]-OH; linker N-4 via Suc), for which the IC50 is above 100 µM.

For `O=C1CCC(=O)N[C@@H](Cc2cccs2)C(=O)N[C@H](Cc2ccc(-c3ccccc3)cc2)C(=O)N[C@H](Cc2ccccc2)C(=O)N[C@@H](C(=O)O)Cc2ccc(cc2)N1` [Compound 501] ([2Thi][dBip][dF][dPhe(4-NH2)]-OH; linker N-4 via Suc), the IC50 is above 100 µM.

Consider `O=C1CCC(=O)N[C@@H](Cc2cccs2)C(=O)N[C@@H](Cc2ccc(-c3ccccc3)cc2)C(=O)N[C@@H](Cc2ccccc2)C(=O)N[C@@H](C(=O)O)Cc2ccc(cc2)N1` [Compound 502] ([2Thi][Bip]F[dPhe(4-NH2)]-OH; linker N-4 via Suc), for which the IC50 was above 100 µM.

Turning to `O=C1CCC(=O)N[C@H](Cc2cccs2)C(=O)N[C@H](Cc2ccc(-c3ccccc3)cc2)C(=O)N[C@@H](Cc2ccccc2)C(=O)N[C@@H](C(=O)O)Cc2ccc(cc2)N1` [Compound 503] ([d2Thi][dBip]F[dPhe(4-NH2)]-OH; linker N-4 via Suc), the IC50 is above 100 µM.

In the case of `O=C(O)CN(Cc1ccccc1)C(=O)[C@@H]1Cc2ccc(cc2)NC(=O)CCC(=O)N[C@H](CCc2ccccc2)C(=O)N[C@@H](Cc2ccc(-c3ccccc3)cc2)C(=O)N[C@H](Cc2ccccc2)C(=O)N1` [Compound 504] ([d(hPhe)][Bip][dF][Phe(4-NH2)][Nphe]-OH; linker N-4 via Suc), the IC50 is below 10 µM.

For `Nc1ccc(C[C@H](NC(=O)[C@@H]2Cc3ccc(cc3)NC(=O)CCC(=O)N[C@H](CCc3ccccc3)C(=O)N[C@@H](Cc3ccc(-c4ccccc4)cc3)C(=O)N[C@H](Cc3ccccc3)C(=O)N2)C(=O)O)cc1` [Compound 505] ([d(hPhe)][Bip][dF][Phe(4-NH2)][Phe(4-NH2)]-OH; linker N-4 via Suc), the IC50 lay in the range of 10 to 30 µM.

Take `O=C1COc2ccc(cc2)C[C@@H](C(=O)O)NC(=O)[C@H](CCc2ccccc2)NC(=O)[C@@H](Cc2ccc(-c3ccccc3)cc2)NC(=O)C(c2ccccc2)N1` (stereo partly drawn) [Compound 507]: the IC50 fell in the range of 10 to 30 µM.

Consider `CC(=O)NCCCC[C@@H]1NC(=O)COc2ccc(cc2)C[C@@H](C(=O)O)NC(=O)[C@H](CCc2ccccc2)NC(=O)[C@@H](Cc2ccc(-c3ccccc3)cc2)NC1=O` [Compound 508], for which the IC50 was below 10 µM.

On to `O=C1COc2ccc(cc2)C[C@@H](C(=O)O)NC(=O)[C@H](CCc2ccccc2)NC(=O)[C@@H](Cc2ccc(-c3ccccc3)cc2)NC(=O)[C@H](CCCc2ccccc2)N1` [Compound 509], for which the IC50 was below 10 µM.

As for `O=C1COc2ccc(cc2)C[C@@H](C(=O)O)NC(=O)[C@H](CCc2ccccc2)NC(=O)[C@@H](Cc2ccc(-c3ccccc3)cc2)NC(=O)[C@H](Cc2ccc(-c3ccccc3)cc2)N1` [Compound 510], the IC50 is below 10 µM.

For `O=C1COc2ccc(cc2)C[C@@H](C(=O)O)NC(=O)[C@H](CCc2ccccc2)NC(=O)[C@@H](Cc2ccc(-c3ccccc3)cc2)NC(=O)[C@H](Cc2ccccc2)N1` [Compound 511], the IC50 was below 10 µM.

For `O=C1COc2ccc(cc2)C[C@@H](C(=O)O)NC(=O)[C@H](CCc2ccccc2)NC(=O)[C@@H](Cc2ccc(-c3ccccc3)cc2)NC(=O)[C@H](Cc2ccc([N+](=O)[O-])cc2)N1` [Compound 512], the IC50 is below 10 µM.
